{
  "source": "paper PMC5218480",
  "about": "(PLoS ONE, 2017)",
  "test_system": "MV-4-11 cells",
  "experiment": "Gene expression microarray analysis (Affymetrix PrimeView) and GSEA",
  "type": "cell-based, human",
  "parameters": "RFU PODN (11730768_x_at) / Fold change /veh PODN (11730768_x_at) / RFU LINC00158 (11744669_a_at) / Fold change /veh LINC00158 (11744669_a_at) / RFU DUSP10 (11751237_a_at) / Fold change /veh DUSP10 (11751237_a_at) / RFU ID3 (11757404_x_at) / Fold change /veh ID3 (11757404_x_at) / RFU PLEKHG5 (11737974_s_at) / Fold change /veh PLEKHG5 (11737974_s_at) / RFU LRRC4B (11730491_at) / Fold change /veh LRRC4B (11730491_at) / RFU GIMAP4 (11747438_a_at) / Fold change /veh GIMAP4 (11747438_a_at) / RFU KRT8 (11758183_x_at) / Fold change /veh KRT8 (11758183_x_at) / RFU CNN1 (11734310_a_at) / Fold change /veh CNN1 (11734310_a_at) / RFU VPS37D (11726825_at) / Fold change /veh VPS37D (11726825_at) / RFU C10orf10 (11716522_x_at) / Fold change /veh C10orf10 (11716522_x_at) / RFU KIR2DL2 /// KIR2DL4 /// KIR2DL5A /// KIR2DL5B /// KIR2DS1 /// KIR2DS2 /// KIR2DS3 /// KIR2DS4 /// KIR3DL3 /// KIR3DL3 /// KIR3DS1 (11738374_at) / Fold change /veh KIR2DL2 /// KIR2DL4 /// KIR2DL5A /// KIR2DL5B /// KIR2DS1 /// KIR2DS2 /// KIR2DS3 /// KIR2DS4 /// KIR3DL3 /// KIR3DL3 /// KIR3DS1 (11738374_at) / RFU C1QL1 (11718748_at) / Fold change /veh C1QL1 (11718748_at) / RFU TMPRSS4 (11747572_a_at) / Fold change /veh TMPRSS4 (11747572_a_at) / RFU HAMP (11756126_x_at) / Fold change /veh HAMP (11756126_x_at) / RFU RNFT2 (11725882_a_at) / Fold change /veh RNFT2 (11725882_a_at) / RFU NR4A2 (11747474_a_at) / Fold change /veh NR4A2 (11747474_a_at) / RFU ABCC12 (11746883_a_at) / Fold change /veh ABCC12 (11746883_a_at) / RFU TMEM136 (11760407_x_at) / Fold change /veh TMEM136 (11760407_x_at) / RFU CLDN22 /// WWC2 (11732394_at) / Fold change /veh CLDN22 /// WWC2 (11732394_at) / RFU HLA-DPB1 (11760878_x_at) / Fold change /veh HLA-DPB1 (11760878_x_at) / RFU SPINT1 (11716480_a_at) / Fold change /veh SPINT1 (11716480_a_at) / RFU GAP43 (11754022_s_at) / Fold change /veh GAP43 (11754022_s_at) / RFU A4GNT (11735810_at) / Fold change /veh A4GNT (11735810_at) / RFU PRB3 (11715151_x_at) / Fold change /veh PRB3 (11715151_x_at) / RFU TUBB4B (11761932_at) / Fold change /veh TUBB4B (11761932_at) / RFU CAPN14 (11732068_a_at) / Fold change /veh CAPN14 (11732068_a_at) / RFU TMCC2 (11721928_a_at) / Fold change /veh TMCC2 (11721928_a_at) / RFU IRGQ (11745062_a_at) / Fold change /veh IRGQ (11745062_a_at) / RFU FAM174B (11720279_a_at) / Fold change /veh FAM174B (11720279_a_at) / RFU TMPRSS4 (11748680_a_at) / Fold change /veh TMPRSS4 (11748680_a_at) / RFU FAM212B (11763350_a_at) / Fold change /veh FAM212B (11763350_a_at) / RFU PLEKHG5 (11743358_a_at) / Fold change /veh PLEKHG5 (11743358_a_at) / RFU ZSCAN30 (11745921_a_at) / Fold change /veh ZSCAN30 (11745921_a_at) / RFU CMKLR1 (11741424_a_at) / Fold change /veh CMKLR1 (11741424_a_at) / RFU LOC101060620 /// MAPK8IP1 (11723275_at) / Fold change /veh LOC101060620 /// MAPK8IP1 (11723275_at) / RFU SPTSSB (11747773_x_at) / Fold change /veh SPTSSB (11747773_x_at) / RFU PRSS12 (11739890_at) / Fold change /veh PRSS12 (11739890_at) / RFU BIN1 (11741810_x_at) / Fold change /veh BIN1 (11741810_x_at) / RFU WNT11 (11732464_a_at) / Fold change /veh WNT11 (11732464_a_at) / RFU C10orf10 (11716521_a_at) / Fold change /veh C10orf10 (11716521_a_at) / RFU C5orf56 (11738089_at) / Fold change /veh C5orf56 (11738089_at) / RFU CYB561 (11721691_x_at) / Fold change /veh CYB561 (11721691_x_at) / RFU ANKRD19P (11752326_a_at) / Fold change /veh ANKRD19P (11752326_a_at) / RFU OR2T12 /// OR2T33 /// OR2T8 (11738714_s_at) / Fold change /veh OR2T12 /// OR2T33 /// OR2T8 (11738714_s_at) / RFU VCAN (11748164_a_at) / Fold change /veh VCAN (11748164_a_at) / RFU JSRP1 (11732532_at) / Fold change /veh JSRP1 (11732532_at) / RFU KRTAP10-11 (11738290_x_at) / Fold change /veh KRTAP10-11 (11738290_x_at) / RFU MYO3A (11730013_a_at) / Fold change /veh MYO3A (11730013_a_at) / RFU EBF3 (11725865_a_at) / Fold change /veh EBF3 (11725865_a_at) / RFU CAMK2N1 (11719241_x_at) / Fold change /veh CAMK2N1 (11719241_x_at) / RFU C5orf56 (11738088_a_at) / Fold change /veh C5orf56 (11738088_a_at) / RFU OLFML3 (11715873_a_at) / Fold change /veh OLFML3 (11715873_a_at) / RFU LOC100653217 /// NTM (11731650_a_at) / Fold change /veh LOC100653217 /// NTM (11731650_a_at) / RFU MAPK11 (11762145_a_at) / Fold change /veh MAPK11 (11762145_a_at) / RFU FIZ1 (11724087_x_at) / Fold change /veh FIZ1 (11724087_x_at) / RFU OASL (11726364_x_at) / Fold change /veh OASL (11726364_x_at) / RFU SOX15 (11748057_x_at) / Fold change /veh SOX15 (11748057_x_at) / RFU CD79A (11719716_a_at) / Fold change /veh CD79A (11719716_a_at) / RFU HIST1H1D (11736915_at) / Fold change /veh HIST1H1D (11736915_at) / RFU CASKIN2 (11723855_a_at) / Fold change /veh CASKIN2 (11723855_a_at) / RFU LOC730098 (11760151_x_at) / Fold change /veh LOC730098 (11760151_x_at) / RFU OR4N2 (11742367_at) / Fold change /veh OR4N2 (11742367_at) / RFU PRRT2 (11749266_a_at) / Fold change /veh PRRT2 (11749266_a_at) / RFU SNX32 (11753110_a_at) / Fold change /veh SNX32 (11753110_a_at) / RFU CDHR5 (11726645_a_at) / Fold change /veh CDHR5 (11726645_a_at) / RFU RCAN1 (11760418_a_at) / Fold change /veh RCAN1 (11760418_a_at) / RFU FAM167A (11723789_a_at) / Fold change /veh FAM167A (11723789_a_at) / RFU FAM26E (11764081_at) / Fold change /veh FAM26E (11764081_at) / RFU ISYNA1 (11749810_s_at) / Fold change /veh ISYNA1 (11749810_s_at) / RFU ACY1 (11761880_at) / Fold change /veh ACY1 (11761880_at) / RFU 11764098_at / Fold change /veh 11764098_at / RFU SAMD14 (11745864_x_at) / Fold change /veh SAMD14 (11745864_x_at) / RFU NPB (11741838_a_at) / Fold change /veh NPB (11741838_a_at) / RFU TMPRSS6 (11731388_a_at) / Fold change /veh TMPRSS6 (11731388_a_at) / RFU KRTAP10-2 (11738614_at) / Fold change /veh KRTAP10-2 (11738614_at) / RFU ARHGAP8 /// PRR5-ARHGAP8 (11727945_x_at) / Fold change /veh ARHGAP8 /// PRR5-ARHGAP8 (11727945_x_at) / RFU KRTAP5-7 /// NADSYN1 (11734609_at) / Fold change /veh KRTAP5-7 /// NADSYN1 (11734609_at) / RFU RASL12 (11751679_a_at) / Fold change /veh RASL12 (11751679_a_at) / RFU CDKN2B (11736163_a_at) / Fold change /veh CDKN2B (11736163_a_at) / RFU PRF1 (11729649_at) / Fold change /veh PRF1 (11729649_at) / RFU, ZNF638 /// ZNF638-IT1 / Fold change vs veh, ZNF638 /// ZNF638-IT1 / RFU, PANK3 / Fold change vs veh, PANK3 / RFU, SH3YL1 / Fold change vs veh, SH3YL1 / RFU, ZEB2 / Fold change vs veh, ZEB2 / RFU, NRIP1 / Fold change vs veh, NRIP1 / RFU, PTTG1IP / Fold change vs veh, PTTG1IP / RFU, CAPN2 / Fold change vs veh, CAPN2 / RFU, MED14 / Fold change vs veh, MED14 / RFU, SNORA58 / Fold change vs veh, SNORA58 / RFU, C1orf63 / Fold change vs veh, C1orf63 / RFU, LRRFIP1 / Fold change vs veh, LRRFIP1 / RFU, NDUFAF7 / Fold change vs veh, NDUFAF7 / RFU, SLC12A2 / Fold change vs veh, SLC12A2 / RFU, IBTK / Fold change vs veh, IBTK / RFU, ESF1 / Fold change vs veh, ESF1 / Fold change vs veh, TMEM50B / RFU, TAOK1 / Fold change vs veh, TAOK1 / RFU, ACBD3 / Fold change vs veh, ACBD3 / RFU, TMA16 / Fold change vs veh, TMA16 / RFU, RWDD3 / Fold change vs veh, RWDD3 / RFU, BCAT1 / Fold change vs veh, BCAT1 / RFU, EDEM3 / Fold change vs veh, EDEM3 / RFU, TMEM33 / Fold change vs veh, TMEM33 / RFU, WDR75 / Fold change vs veh, WDR75 / RFU, AHCTF1 / Fold change vs veh, AHCTF1 / RFU, TFRC / Fold change vs veh, TFRC / RFU, ZDHHC17 / Fold change vs veh, ZDHHC17 / RFU, NOM1 / Fold change vs veh, NOM1 / RFU, ARL8B / Fold change vs veh, ARL8B / RFU, ZBTB11 / Fold change vs veh, ZBTB11 / RFU, TAMM41 / Fold change vs veh, TAMM41 / RFU, KIAA1704 /// LOC100996395 / Fold change vs veh, KIAA1704 /// LOC100996395 / RFU, ING1 / Fold change vs veh, ING1 / RFU, TRMT61B / Fold change vs veh, TRMT61B / RFU, FUBP3 / Fold change vs veh, FUBP3 / RFU, TP53 / Fold change vs veh, TP53 / RFU, TNKS2 / Fold change vs veh, TNKS2 / RFU, ZFP14 / Fold change vs veh, ZFP14 / RFU, ACTR2 / Fold change vs veh, ACTR2 / RFU, PPP3R1 / Fold change vs veh, PPP3R1 / RFU, PIK3R1 / Fold change vs veh, PIK3R1 / RFU, HNRNPA1 / Fold change vs veh, HNRNPA1 / RFU, RNF170 / Fold change vs veh, RNF170 / RFU, ZNF28 / Fold change vs veh, ZNF28 / RFU, RNGTT / Fold change vs veh, RNGTT / RFU, OGT / Fold change vs veh, OGT / RFU, BRD1 / Fold change vs veh, BRD1 / RFU, MARS / Fold change vs veh, MARS / RFU, ZNF655 / Fold change vs veh, ZNF655 / RFU, FAHD1 / Fold change vs veh, FAHD1 / RFU, BDP1 / Fold change vs veh, BDP1 / RFU, LRRCC1 / Fold change vs veh, LRRCC1 / RFU, ARID1A / Fold change vs veh, ARID1A / RFU, ZNF146 / Fold change vs veh, ZNF146 / RFU, ZNF330 / Fold change vs veh, ZNF330 / RFU, GPN3 / Fold change vs veh, GPN3 / RFU, C9orf123 / Fold change vs veh, C9orf123 / RFU, N4BP2L2 / Fold change vs veh, N4BP2L2 / RFU, ARFIP1 / Fold change vs veh, ARFIP1 / RFU, FAM179B / Fold change vs veh, FAM179B / RFU, BCL10 / Fold change vs veh, BCL10 / RFU, UHRF1BP1L / Fold change vs veh, UHRF1BP1L / RFU, BET1 / Fold change vs veh, BET1 / RFU, CNOT2 / Fold change vs veh, CNOT2 / RFU, ZNF268 / Fold change vs veh, ZNF268 / Fold change vs veh, ZNF507 / RFU, DGCR2 / Fold change vs veh, DGCR2 / RFU, WDSUB1 / Fold change vs veh, WDSUB1 / Fold change vs veh, HSP90B1 /// MIR3652 / RFU, ADSS / Fold change vs veh, ADSS / RFU, GK / Fold change vs veh, GK / RFU, ZNF148 / Fold change vs veh, ZNF148 / RFU, TAF9 / Fold change vs veh, TAF9 / RFU, SLC1A5 / Fold change vs veh, SLC1A5 / RFU, SLMO2 / Fold change vs veh, SLMO2 / RFU, ABCC4 / Fold change vs veh, ABCC4 / RFU, LOC101060439 /// RAP1B / Fold change vs veh, LOC101060439 /// RAP1B / RFU, RFX7 / Fold change vs veh, RFX7 / RFU, GTPBP10 / Fold change vs veh, GTPBP10 / RFU, CNEP1R1 / Fold change vs veh, CNEP1R1 / RFU, BIVM-ERCC5 /// ERCC5 / Fold change vs veh, BIVM-ERCC5 /// ERCC5 / RFU, ILF3 / Fold change vs veh, ILF3 / RFU 11762660_at / Fold change /veh 11762660_at / RFU VCAN (11757783_s_at) / Fold change /veh VCAN (11757783_s_at) / RFU DDX43 (11728927_at) / Fold change /veh DDX43 (11728927_at) / RFU KRT8 (11758188_x_at) / Fold change /veh KRT8 (11758188_x_at) / RFU NKD1 (11759106_at) / Fold change /veh NKD1 (11759106_at) / RFU SRD5A1 (11742802_a_at) / Fold change /veh SRD5A1 (11742802_a_at) / RFU TPSAB1 /// TPSB2 (11721975_s_at) / Fold change /veh TPSAB1 /// TPSB2 (11721975_s_at) / RFU GSTM3 (11746129_a_at) / Fold change /veh GSTM3 (11746129_a_at) / RFU IL23R (11737362_x_at) / Fold change /veh IL23R (11737362_x_at) / RFU TMEM51 (11727254_a_at) / Fold change /veh TMEM51 (11727254_a_at) / RFU PIWIL2 (11732686_x_at) / Fold change /veh PIWIL2 (11732686_x_at) / RFU ORM1 (11744905_x_at) / Fold change /veh ORM1 (11744905_x_at) / RFU CCDC152 (11743942_at) / Fold change /veh CCDC152 (11743942_at) / RFU ECM1 (11717891_a_at) / Fold change /veh ECM1 (11717891_a_at) / RFU IL23R (11748794_a_at) / Fold change /veh IL23R (11748794_a_at) / RFU TNFAIP8L3 (11732012_x_at) / Fold change /veh TNFAIP8L3 (11732012_x_at) / RFU MBOAT4 (11741988_at) / Fold change /veh MBOAT4 (11741988_at) / RFU 11764193_at / Fold change /veh 11764193_at / RFU TMEM53 (11763286_at) / Fold change /veh TMEM53 (11763286_at) / RFU MAGEB2 (11727129_at) / Fold change /veh MAGEB2 (11727129_at) / RFU TMEM200A (11744735_a_at) / Fold change /veh TMEM200A (11744735_a_at) / RFU CCDC152 (11751479_a_at) / Fold change /veh CCDC152 (11751479_a_at) / RFU FAM211A (11726209_a_at) / Fold change /veh FAM211A (11726209_a_at) / RFU RGS16 (11746705_a_at) / Fold change /veh RGS16 (11746705_a_at) / RFU VCAN (11755009_s_at) / Fold change /veh VCAN (11755009_s_at) / RFU RHOB (11743442_s_at) / Fold change /veh RHOB (11743442_s_at) / RFU RGS16 (11720943_a_at) / Fold change /veh RGS16 (11720943_a_at) / RFU RGS16 (11720944_at) / Fold change /veh RGS16 (11720944_at) / RFU, VPS4B / Fold change vs veh, VPS4B / RFU, CREB1 / Fold change vs veh, CREB1 / RFU, DNAJC13 / Fold change vs veh, DNAJC13 / RFU, GNAQ / Fold change vs veh, GNAQ / RFU, CDK5R1 / Fold change vs veh, CDK5R1 / RFU, ZRANB3 / Fold change vs veh, ZRANB3 / RFU, CUL4A / Fold change vs veh, CUL4A / RFU, CCNY / Fold change vs veh, CCNY / RFU, UFL1 / Fold change vs veh, UFL1 / RFU, COG3 / Fold change vs veh, COG3 / RFU, DIAPH2 / Fold change vs veh, DIAPH2 / RFU, SKA2 / Fold change vs veh, SKA2 / RFU, AFF3 / Fold change vs veh, AFF3 / RFU, LMF1 / Fold change vs veh, LMF1 / RFU, IPO11 / Fold change vs veh, IPO11 / RFU, DFFB / Fold change vs veh, DFFB / RFU, FOXP1 / Fold change vs veh, FOXP1 / RFU, CARD8 / Fold change vs veh, CARD8 / RFU, STRN3 / Fold change vs veh, STRN3 / RFU, ADK / Fold change vs veh, ADK / RFU, RASSF2 / Fold change vs veh, RASSF2 / RFU, WIPF1 / Fold change vs veh, WIPF1 / RFU, LARP1B / Fold change vs veh, LARP1B / RFU, RASA1 / Fold change vs veh, RASA1 / RFU, RB1 / Fold change vs veh, RB1 / RFU, PPFIA1 / Fold change vs veh, PPFIA1 / RFU, MAT2A / Fold change vs veh, MAT2A / RFU, CCT5 / Fold change vs veh, CCT5 / RFU, WDR92 / Fold change vs veh, WDR92 / RFU, CUX1 / Fold change vs veh, CUX1 / RFU, TTC7A / Fold change vs veh, TTC7A / RFU, TMEM135 / Fold change vs veh, TMEM135 / RFU, DEPTOR / Fold change vs veh, DEPTOR / RFU, CPM / Fold change vs veh, CPM / RFU, DNAJB6 / Fold change vs veh, DNAJB6 / RFU, CACNA2D3 / Fold change vs veh, CACNA2D3 / RFU, DTX4 / Fold change vs veh, DTX4 / RFU, TFCP2 / Fold change vs veh, TFCP2 / RFU, GMCL1 /// GMCL1P1 / Fold change vs veh, GMCL1 /// GMCL1P1 / RFU, AEBP2 / Fold change vs veh, AEBP2 / RFU, SNHG1 /// SNORD22 /// SNORD25 /// SNORD26 /// SNORD27 /// SNORD28 /// SNORD29 /// SNORD31 / Fold change vs veh, SNHG1 /// SNORD22 /// SNORD25 /// SNORD26 /// SNORD27 /// SNORD28 /// SNORD29 /// SNORD31 / Fold change (Aza/veh), C12orf56 (ProbeSet 11735607_a_at) / Fold change (ACY-1035/veh), C12orf56 (ProbeSet 11735607_a_at) / Fold change (Aza/veh), FGFR1OP (ProbeSet 11751329_s_at) / Fold change (ACY-1035/veh), FGFR1OP (ProbeSet 11751329_s_at) / Fold change (Aza/veh), VPS36 (ProbeSet 11739960_a_at) / Fold change (ACY-1035/veh), VPS36 (ProbeSet 11739960_a_at) / RFU SYPL1 (11715823_x_at) / Fold change /veh SYPL1 (11715823_x_at) / RFU IGFBP7 (11715501_s_at) / Fold change /veh IGFBP7 (11715501_s_at) / RFU REEP3 (11722064_at) / Fold change /veh REEP3 (11722064_at) / RFU IGLL1 (11728026_x_at) / Fold change /veh IGLL1 (11728026_x_at): dose or concentration left out as unconfirmed",
  "details": "ProbeSet 11732154_at; LIST B",
  "data": [
    {"smiles": "Nc1ncn([C@@H]2O[C@H](CO)[C@@H](O)[C@H]2O)c(=O)n1", "note": "[azacitidine]", "values": [
      {"measurement": "Fold change vs veh, OGT", "result": 0.90}
    ]}
  ]
}
